For 22 compounds, IC50 results are on record in patent US9051310B2, “Nicotinamide derivative or salt thereof” (FUJIFILM Corporation, priority 2011, dated 2015).

In general, IC50 refers to the concentration that gives 50% inhibition.

The target in this test is T1, glutathione S-transferase (GST)-linked full-length human Syk protein (Homo sapiens, UniProt P43405).
T1 construct: glutathione S-transferase (GST)-linked full-length human Syk protein; purchased Carna Biosciences; host or cells: Baculovirus expression system
As to the kind of experiment: Syk enzyme assay. It is filed as biochemical. Particulars: 0.83 nM Syk, time-resolved fluorescence; read-out: IC50 of Syk-inhibitory activity. As for the experimental part: A glutathione S-transferase (GST)-linked full-length human Syk protein (Carna Biosciences), which had been generated using a Baculovirus expression system, was used in the Syk enzyme assay.
7.5 μl of a reaction solution (0.83 nM Syk, 20 mM HEPES, 10 mM MgCl2, 50 mM NaCl, 2 mM DTT, 0.05% BSA, pH 7.0) containing a Syk protein and a predetermined concentration of a test compound was shaken for 2 minutes, and it was then left at rest at room temperature for 13 minutes. Thereafter, 0.5 μM substrate peptide (Biotin-[…]-NH2) and 5 μL of a solution containing 67.5 μM ATP were added to the reaction solution, and the obtained mixture was then shaken for 2 minutes. The reaction solution was further left at rest at room temperature for 40 minutes, so as to carry out an enzyme reaction.
Thereafter, 50 μL of a reaction termination solution [60 nM APC-SA, 0.45 μg/mL Eu-PT66, 30 mM HEPES (pH 7.0), 150 mM KF, 30 mM EDTA, 0.15% BSA, 0.075% Tween20] containing Allophycocyanin-Streptavidin (APC-SA; PerkinElmer) and an Eu-W1024-labeled anti-phosphotyrosine PT66 antibody (Eu-PT66; PerkinElmer) was added to the reaction solution to terminate the enzyme reaction. At the same time, the reaction solution was left at rest at room temperature for 1 hour, so as to carry out an antigen-antibody reaction. Thereafter, using EnVision (PerkinElmer), the level of time-resolved fluorescence was measured at 615 nm and 665 nm, so that the phosphorylation of the substrate peptide was measured.
The following are used in Table 5 to denote standards for evaluating IC50 of Syk-inhibitory activity. • A: Up to 10 nM • B: 10 to 50 nM • C: 50 to 100 nM
Consider `COCCn1ncc2c(Nc3nc(N[C@@H]4CCCC[C@@H]4N)c(F)cc3C(N)=O)cncc21` [Example 2-384, 6-(((1R,2S)-2-aminocyclohexyl)amino)-5-fluoro-2-((1-(2-methoxyethyl)-1H-pyrazolo[3,4-c]pyridin-4-yl)amino)nicotinamide], for which the IC50 is less than 10 nM.

On to `COc1cc(Nc2nc(N[C@H](CCSC)[C@H](C)N)c(F)cc2C(N)=O)cc(OC)c1` [Example 2-345, 6-(((3R,4S)-4-amino-1-(methylthio)pentan-3-yl)amino)-2-((3,5-dimethoxyphenyl)amino)-5-fluoronicotinamide], for which the IC50 lay within 10 to 50 nM.

For the compound `C[C@H](N)[C@H](Nc1nc(Nc2cnc(N3CCOCC3)nc2)c(C(N)=O)cc1F)C1CC1` [Example 2-563, 6-(((1R,2S)-2-amino-1-cyclopropylpropyl)amino)-5-fluoro-2-((2-morpholinopyrimidin-5-yl)amino)nicotinamide], the IC50 lay within 50 to 100 nM.

On to `CCOC[C@@H](Nc1nc(Nc2cnc(C)c(-n3nccn3)c2)c(C(N)=O)cc1F)[C@H](C)N` [Example 2-183, 6-(((2S,3S)-3-amino-1-ethoxybutan-2-yl)amino)-5-fluoro-2-((6-methyl-5-(2H-1,2,3-triazol-2-yl)pyridin-3-yl)amino)nicotinamide], for which the IC50 fell in the range of 50 to 100 nM.

Regarding `COc1cc(Nc2nc(N[C@H](C(C)C)[C@H](C)N)c(F)cc2C(N)=O)ccn1` [Example 2-107, 6-(((2S,3R)-2-amino-4-methylpentan-3-yl)amino)-5-fluoro-2-((2-methoxypyridin-4-yl)amino)nicotinamide], the IC50 lay in the range of 50 to 100 nM.

In the case of `C[C@H](N)[C@H](Nc1nc(Nc2ccc3c(c2)c(N(C)C)nn3C)c(C(N)=O)cc1F)c1cccs1` [Example 2-510, 6-(((1S,2S)-2-amino-1-(thiophen-2-yl)propyl)amino)-2-((3-(dimethylamino)-1-methyl-1H-indazol-5-yl)amino)-5-fluoronicotinamide], the IC50 is less than 10 nM.

With `COCCn1ncc2c(Nc3nc(N[C@@H](CN)CC(C)C)c(F)cc3C(N)=O)cncc21` [Example 2-386, (R)-6-((1-amino-4-methylpentan-2-yl)amino)-5-fluoro-2-((1-(2-methoxyethyl)-1H-pyrazolo[3,4-c]pyridin-4-yl)amino)nicotinamide], the IC50 was less than 10 nM.

`Cc1ccc(Nc2nc(N[C@@H]3CCCC[C@@H]3N)c(F)cc2C(N)=O)cc1` [Example 2-435, 6-(((1R,2S)-2-aminocyclohexyl)amino)-5-fluoro-2-(p-tolylamino)nicotinamide]: the IC50 is less than 10 nM.

With `CC[C@H](N)[C@@H](C)Nc1nc(Nc2ccc3[nH]nc(NC)c3c2)c(C(N)=O)cc1F` [Example 2-491, 6-(((2R,3S)-3-aminopentan-2-yl)amino)-5-fluoro-2-((3-(methylamino)-1H-indazol-5-yl)amino)nicotinamide], the IC50 was 10 to 50 nM.

For `CC[C@@H](Nc1nc(Nc2ccc3c(c2)c(OC(F)F)nn3CCOC)c(C(N)=O)cc1F)[C@H](C)N` [Example 2-175, 6-(((2S,3R)-2-aminopentan-3-yl)amino)-2-((3-(difluoromethoxy)-1-(2-methoxyethyl)-1H-indazol-5-yl)amino)-5-fluoronicotinamide], the IC50 was less than 10 nM.

On to `CC[C@H](N)[C@@H](C)Nc1nc(Nc2cncc3c2cnn3CC(F)F)c(C(N)=O)cc1F` [Example 2-402, 6-(((2R,3S)-3-aminopentan-2-yl)amino)-2-((1-(2,2-difluoroethyl)-1H-pyrazolo[3,4-c]pyridin-4-yl)amino)-5-fluoronicotinamide], for which the IC50 was less than 10 nM.

With `Cc1ncc(Nc2nc(N[C@H](c3cc(F)cc(F)c3)[C@H](C)N)c(F)cc2C(N)=O)cc1-n1nccn1` [Example 2-548, 6-(((1R,2S)-2-amino-1-(3,5-difluorophenyl)propyl)amino)-5-fluoro-2-((6-methyl-5-(2H-1,2,3-triazol-2-yl)pyridin-3-yl)amino)nicotinamide], the IC50 was 10 to 50 nM.

On to `Cc1ncc(Nc2nc(N[C@H](c3ccccn3)[C@H](C)N)c(F)cc2C(N)=O)cc1-n1nccn1` [Example 2-403, 6-(((1S,2S)-2-amino-1-(pyridin-2-yl)propyl)amino)-5-fluoro-2-((6-methyl-5-(2H-1,2,3-triazol-2-yl)pyridin-3-yl)amino)nicotinamide], for which the IC50 is 10 to 50 nM.

Take `CCn1ncc2c(Nc3nc(N[C@H](c4cc(F)cc(F)c4)[C@H](C)N)c(F)cc3C(N)=O)cccc21` [Example 2-551, 6-(((1R,2S)-2-amino-1-[3,5-difluorophenyl)propyl)amino)-2-((1-ethyl-1H-indazol-4-yl)amino)-5-fluoronicotinamide]: the IC50 fell in the range of 10 to 50 nM.

Take `C[C@H](N)[C@H](Nc1nc(Nc2cncc(-n3cc(Cl)cn3)c2)c(C(N)=O)cc1F)C1CC1` [Example 2-520, 6-(((1R,2S)-2-amino-1-cyclopropylpropyl)amino)-2-((5-(4-chloro-1H-pyrazol-1-yl)pyridin-3-yl)amino)-5-fluoronicotinamide]: the IC50 is less than 10 nM.

For `CCOc1ncc(Nc2nc(N[C@H](C3CCC3)[C@H](C)N)c(F)cc2C(N)=O)cc1-n1ccnn1` [Example 2-167, 6-(((1R,2S)-2-amino-1-cyclobutylpropyl)amino)-2-((6-ethoxy-5-(1H-1,2,3-triazol-1-yl)pyridin-3-yl)amino)-5-fluoronicotinamide], the IC50 fell in the range of 10 to 50 nM.

Take `CC[C@@H](Nc1nc(Nc2ccc3c(c2)c(N(C)C)nn3CCOC)c(C(N)=O)cc1F)[C@H](C)N` [Example 2-502, 6-(((2S,3R)-2-aminopentan-3-yl)amino)-2-((3-(dimethylamino)-1-(2-methoxyethyl)-1H-indazol-5-yl)amino)-5-fluoronicotinamide]: the IC50 is 10 to 50 nM.

Regarding `CCn1ncc2cc(Nc3nc(N[C@H](Cc4ccccc4)[C@H](C)N)c(F)cc3C(N)=O)ccc21` [Example 2-423, 6-(((2R,3S)-3-amino-1-phenylbutan-2-yl)amino)-2-((1-ethyl-1H-indazol-5-yl)amino)-5-fluoronicotinamide], the IC50 is less than 10 nM.

On to `CC(C)[C@@H](Nc1nc(Nc2ccc3cnn(C)c3c2)c(C(N)=O)cc1F)[C@H](C)N` [Example 2-102, 6-(((2S,3R)-2-amino-4-methylpentan-3-yl)amino)-5-fluoro-2-((1-methyl-1H-indazol-6-yl)amino)nicotinamide], for which the IC50 lay in the range of 50 to 100 nM.

On to `CC[C@H](N)[C@@H](C)Nc1nc(Nc2cnc(OC)c(-n3nccn3)c2)c(C(N)=O)cc1F` [Example 2-279, 6-(((2R,3S)-3-aminopentan-2-yl)amino)-5-fluoro-2-((6-methoxy-5-(2H-1,2,3-triazol-2-yl)pyridin-3-yl)amino)nicotinamide], for which the IC50 was 10 to 50 nM.

As for `CC[C@@H](Nc1nc(Nc2cnc(OC)c(F)c2)c(C(N)=O)cc1F)[C@H](C)N` [Example 2-64, 6-(((2S,3R)-2-aminopentan-3-yl)amino)-5-fluoro-2-((5-fluoro-6-methoxypyridin-3-yl)amino)nicotinamide], the IC50 fell in the range of 10 to 50 nM.

As to `COc1ccc([C@@H](Nc2nc(Nc3ccc4c(c3)c(N(C)C)nn4C)c(C(N)=O)cc2F)[C@H](C)N)cc1` [Example 2-342, 6-(((1R,2S)-2-amino-1-(4-methoxyphenyl)propyl)amino)-2-((3-(dimethylamino)-1-methyl-1H-indazol-5-yl)amino)-5-fluoronicotinamide], the IC50 lay within 10 to 50 nM.
